Molecules are shown by their SMILES. Like-named read-outs stand apart in the source and are kept apart here.

The term IC50 denotes the concentration needed to halve the response being measured.

Common to all, as to assay: microbe, parasite or virus in culture
Holding throughout (assay type): cell-based, Hepatitis C virus (HCV)
Conditions in all cases: Replicon Assay A
(In general: In antiviral work, replicon cells carry a viral genome segment that copies itself.)

One experiment concerns HCV replicon 2B. In outline: (§1)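 Three-day treatment of replicon cells (2000/well, 5% FBS, 0.5% DMSO), followed by TaqMan RT-PCR of replicon RNA with cyclophilin as internal control.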
The test system of another experiment is HCV replicon 1AY93H. In outline: as §1
The next experiment relates to HCV replicon 1A. In outline: as §1
Where [1] appears, read: read-out: 1A Y93H IC50, replicon 1AY93H.
Where [2] appears, read: Hepatitis C virus, read-out: 2B IC50 (nM), replicon 2B.
Setting [3] is: Hepatitis C virus, read-out: 1A Y93H IC50 (nM), replicon 1AY93H.
[4] abbreviates: read-out: 2B IC50, HCV replicon 2B.
Where [5] appears, read: read-out: 1A Y93H IC50, HCV replicon 1A Y93H.
The mark [6] stands for this setting: Hepatitis C virus, read-out: 2B IC50, HCV replicon 2B.
Setting [7] is: Hepatitis C virus, read-out: 1A Y93H IC50, HCV replicon 1A Y93H.
Where [8] appears, read: Hepatitis C virus, HCV replicon 1A.

Take `[2H]C(C)(C)C(NC(=O)OC)C(=O)N1CCC[C@H]1c1ncc(-c2cc(F)c3c(c2)OC(c2ccc(C4CC4)s2)n2c-3cc3cc(-c4cnc([C@@H]5CCCN5C(=O)[C@@H](NC(=O)OC)C(C)C)[nH]4)ccc32)[nH]1` (single isomer, unassigned) [Compound 31]: the IC50 with HCV replicon 2B (read-out: 2B IC50, replicon 2B) came out at 0.083 nM; in the experiment with HCV replicon 1AY93H (setting [1]) it was 0.02 nM; in the experiment on HCV replicon 1A (replicon 1A) it was 0.002 nM.
On to `COC(=O)N[C@H](C(=O)N1CCC[C@H]1c1ncc(-c2cc(F)c3c(c2)OC(c2sccc2C2CC2)n2c-3cc3cc(-c4cnc([C@@H]5CCCN5C(=O)[C@@H](NC(=O)OC)C(C)C)[nH]4)ccc32)[nH]1)C(C)C` (single isomer, unassigned) [Compound 25], for which the IC50 was 15.1 nM in the experiment on HCV replicon 2B (setting [2]); 14.4 nM in the experiment on HCV replicon 1AY93H (setting [3]); 0.0043 nM with HCV replicon 1A (Hepatitis C virus, replicon 1A).
On to `COC(=O)NC(C(=O)N1CCC[C@H]1c1ncc(-c2ccc3c(c2)cc2n3C(c3ccc(C4CC4)s3)Oc3cc(-c4cnc([C@@H]5CCCN5C(=O)[C@@H](NC(=O)OC)C(C)C)[nH]4)cc(F)c3-2)[nH]1)C1CCO[C@H](C)C1` (single isomer, unassigned) [Compound 141], for which the IC50 in the experiment on HCV replicon 2B (read-out: 2B IC50, replicon 2B) turned out to be 21.4 nM; in the experiment with HCV replicon 1AY93H (setting [1]), 12.8 nM; in the experiment on HCV replicon 1A (replicon 1A), 0.0584 nM.
With `COC(=O)NC(C(=O)N1CCC[C@H]1c1ncc(-c2ccc3c(c2)cc2n3C(c3ccc(C(C)C)s3)Oc3cc(-c4cnc([C@@H]5CCCN5C(=O)[C@@H](NC(=O)OC)C(C)C)[nH]4)cc(C)c3-2)[nH]1)C1C[C@@H](C)O[C@@H](C)C1` (single isomer, unassigned) [Compound 365], the IC50 in the experiment on HCV replicon 2B (read-out: 2B IC50, replicon 2B) amounted to 0.154 nM; in the experiment with HCV replicon 1AY93H (setting [1]), 0.38 nM; with HCV replicon 1A (Hepatitis C virus, replicon 1A), 0.0027 nM.
As for `[2H]C(C)(C)C(NC(=O)OC)C(=O)N1CCC[C@H]1c1ncc(-c2cc(F)c3c(c2)OC(c2ccc(C4CC4)s2)n2c-3cc3cc(-c4cnc([C@@H]5CCCN5C(=O)[C@@H](NC(=O)OC)C(C)C)[nH]4)ccc32)[nH]1` (single isomer, unassigned) [Compound 32], the IC50 in the experiment with HCV replicon 2B (read-out: 2B IC50, replicon 2B) worked out at 6.02 nM; in the experiment on HCV replicon 1AY93H (setting [1]), 1.42 nM; in the experiment on HCV replicon 1A (replicon 1A), 0.0013 nM.
Turning to `COC(=O)NC(C(=O)N1CCC[C@H]1c1ncc(-c2cc(F)c3c(c2)OC(c2ccc(C4CC4)s2)n2c-3cc3cc(-c4cnc([C@@H]5C[C@H]6C[C@H]6N5C(=O)[C@@H](NC(=O)OC)C(C)C)[nH]4)ccc32)[nH]1)C(C)(C)F` (single isomer, unassigned) [Compound 98], the values for the IC50 with HCV replicon 2B (setting [2]), in the experiment on HCV replicon 1AY93H (setting [1]) and with HCV replicon 1A (replicon 1A) were 2.16 nM, 0.06 nM and 0.0011 nM, respectively.
`CCc1ccc(C2Oc3cc(-c4cnc([C@@H]5CCCN5C(=O)[C@@H](NC(=O)OC)C(C)C)[nH]4)cc(F)c3-c3cc4cc(-c5cnc([C@@H]6C[C@H]7C[C@H]7N6C(=O)C(NC(=O)OC)C6CCOC(C)(C)C6)[nH]5)ccc4n32)s1` (single isomer, unassigned) [Compound 202]: the IC50 in the experiment on HCV replicon 2B (read-out: 2B IC50, replicon 2B) came out at 3.31 nM; in the experiment on HCV replicon 1AY93H (setting [1]), 0.49 nM; in the experiment with HCV replicon 1A (replicon 1A), 0.0013 nM.
For the molecule `COC(=O)N[C@H](C(=O)N1CCC[C@H]1c1ncc(-c2ccc3c(c2)OC(c2cc(C)c(C)s2)n2c-3cc3cc(-c4cnc([C@@H]5C[C@H]6C[C@H]6N5C(=O)[C@@H](NC(=O)OC)C(C)C)[nH]4)ccc32)[nH]1)C(C)C` (single isomer, unassigned) [Compound 502], the IC50 amounted to 0.0575 nM in the experiment with HCV replicon 2B (setting [4]), 0.575 nM in the experiment on HCV replicon 1AY93H (setting [5]) and 0.0121 nM in the experiment with HCV replicon 1A (HCV replicon 1A).
With `COC(=O)N[C@H](C(=O)N1CCC[C@H]1c1ncc(-c2ccc3c(c2)OC(c2ccc(C4CC4)s2)n2c-3c(F)c3cc(-c4cnc([C@@H]5C[C@H]6C[C@H]6N5C(=O)[C@@H](NC(=O)OC)C(C)C)[nH]4)ccc32)[nH]1)C(C)C` (single isomer, unassigned) [Compound 612], the figures for the IC50 in the experiment with HCV replicon 2B (setting [4]), in the experiment on HCV replicon 1AY93H (setting [5]) and with HCV replicon 1A (HCV replicon 1A) were 2.21 nM, 0.469 nM and 0.0016 nM, respectively.
Regarding `COC(=O)N[C@H](C(=O)N1CCC[C@H]1c1ncc(-c2cc(F)c3c(c2)OC(c2csc4ccccc24)n2c-3cc3cc(-c4cnc([C@@H]5CCCN5C(=O)[C@@H](NC(=O)OC)C(C)C)[nH]4)ccc32)[nH]1)C(C)C` (single isomer, unassigned) [Compound 324], the IC50 in the experiment with HCV replicon 2B (read-out: 2B IC50, replicon 2B) stood at 7.99 nM; with HCV replicon 1AY93H (setting [1]), 4.89 nM; in the experiment on HCV replicon 1A (replicon 1A), 0.0014 nM.
`COC(=O)N[C@H](C(=O)N1CCC[C@H]1c1ncc(-c2cc(F)c3c(c2)OC(c2ccc(C4CC4)s2)n2c-3cc3cc(-c4cnc([C@@H]5CCCN5C(=O)[C@@H](NC(=O)OC)C(C)C)[nH]4)ccc32)[nH]1)C(C)C` (mixture of isomers) [Compound 510]: the IC50 is 0.0488 nM with HCV replicon 2B (setting [6]), 0.0979 nM with HCV replicon 1AY93H (setting [7]) and 0.00793 nM in the experiment with HCV replicon 1A (setting [8]).
For `COC(=O)N[C@H](C(=O)C1NCC[C@H]1c1ncc(-c2ccc3c(c2)OC(c2ccc(C4CC4)s2)n2c-3cc3cc(-c4c[nH]c([C@@H]5C[C@H]6C[C@H]6N5C(=O)[C@@H](NC(=O)OC)C(C)C)n4)ccc32)[nH]1)C(C)C` (mixture of isomers) [Compound 504] the same measures were 1.52 nM, 0.245 nM and 0.0167 nM.
For the molecule `COC(=O)N[C@H](C(=O)N1CCC[C@H]1c1ncc(-c2cc(F)c3c(c2)OC(c2ccc(CC(C)C)s2)n2c-3cc3cc(-c4cnc([C@@H]5CCCN5C(=O)[C@@H](NC(=O)OC)C(C)C)[nH]4)ccc32)[nH]1)C(C)C` (single isomer, unassigned) [Compound 521], the IC50 in the experiment with HCV replicon 2B (setting [4]) was 3.49 nM; with HCV replicon 1AY93H (setting [5]), 0.695 nM; with HCV replicon 1A (HCV replicon 1A) it was 0.00652 nM.
On the same counts, the results for `CCc1ccc(C2Oc3cc(-c4cnc([C@@H]5CCCN5C(=O)[C@@H](NC(=O)OC)C(C)C)[nH]4)cc(C)c3-c3cc4cc(-c5cnc([C@@H]6CCCN6C(=O)C(NC(=O)OC)C6C[C@@H](C)O[C@H](C)C6)[nH]5)ccc4n32)s1` (single isomer, unassigned) [Compound 546] are 0.0542 nM, 0.268 nM and 0.0138 nM.
On the same counts, the results for `COC(=O)N[C@H](C(=O)N1CCC[C@H]1c1ncc(-c2ccc3c(c2)OC(c2cc4sccc4s2)n2c-3cc3cc(-c4c[nH]c([C@@H]5C[C@H]6C[C@H]6N5C(=O)[C@@H](NC(=O)OC)C(C)C)n4)ccc32)[nH]1)C(C)C` (single isomer, unassigned) [Compound 718] are 0.82 nM, 0.11 nM and 0.0024 nM.
For `CCc1ccc(C2Oc3cc(-c4cnc([C@@H]5CCCN5C(=O)C(NC(=O)OC)C5C[C@@H](C)O[C@@H](C)C5)[nH]4)cc(F)c3-c3cc4cc(-c5cnc([C@@H]6CCCN6C(=O)[C@@H](NC(=O)OC)C(C)C)[nH]5)ccc4n32)s1` (single isomer, unassigned) [Compound 154], the IC50 in the experiment on HCV replicon 2B (read-out: 2B IC50, replicon 2B) stood at 0.55 nM; with HCV replicon 1AY93H (setting [1]), 0.36 nM; with HCV replicon 1A (replicon 1A), 0.0017 nM.
Regarding `COC(=O)NC(C(=O)N1CCC[C@H]1c1ncc(-c2ccc3c(c2)cc2n3C(c3ccc(C4CC4)s3)Oc3cc(-c4cnc([C@@H]5CCCN5C(=O)[C@@H](NC(=O)OC)C(C)C)[nH]4)cc(F)c3-2)[nH]1)C(C)(C)F` (single isomer, unassigned) [Compound 76], the IC50 in the experiment with HCV replicon 2B (read-out: 2B IC50, replicon 2B) came out at 13.7 nM; with HCV replicon 1AY93H (setting [1]), 2.55 nM; with HCV replicon 1A (replicon 1A) it was 0.0159 nM.
On the same counts, the results for `CCc1ccc(C2Oc3cc(-c4cnc([C@@H]5CCCN5C(=O)C(NC(=O)OC)C5CCOC(C)(C)C5)[nH]4)cc(F)c3-c3cc4cc(-c5cnc([C@@H]6CCCN6C(=O)[C@@H](NC(=O)OC)C(C)C)[nH]5)ccc4n32)s1` (single isomer, unassigned) [Compound 160] are 19.1 nM, 24.9 nM and 0.114 nM.
`COC(=O)N[C@H](C(=O)N1CCC[C@H]1c1ncc(-c2cc(C)c3c(c2)OC(c2cc(C)c(C)s2)n2c-3cc3cc(-c4cnc([C@@H]5CCCN5C(=O)[C@@H](NC(=O)OC)C(C)C)[nH]4)ccc32)[nH]1)C(C)C` (single isomer, unassigned) [Compound 15]: the IC50 in the experiment on HCV replicon 2B (read-out: 2B IC50, replicon 2B) was 2.28 nM; in the experiment with HCV replicon 1AY93H (setting [1]) it was 18.1 nM; with HCV replicon 1A (Hepatitis C virus, replicon 1A), 0.0029 nM.
Consider `COC(=O)NC(C(=O)N1CCC[C@H]1c1ncc(-c2ccc3c(c2)cc2n3C(c3ccc(C(C)C)s3)Oc3cc(-c4cnc([C@@H]5CCCN5C(=O)[C@@H](NC(=O)OC)C(C)C)[nH]4)cc(F)c3-2)[nH]1)C1C[C@@H](C)O[C@@H](C)C1` (single isomer, unassigned) [Compound 232], for which the IC50 turned out to be 0.63 nM in the experiment on HCV replicon 2B (read-out: 2B IC50, replicon 2B); 0.2 nM with HCV replicon 1AY93H (setting [1]); 0.0027 nM in the experiment on HCV replicon 1A (replicon 1A).
In the case of `COC(=O)N[C@H](C(=O)N1CCC[C@H]1c1ncc(-c2cc(F)c3c(c2)OC(c2ccc(C(=O)N(C)C)s2)n2c-3cc3cc(-c4cnc([C@@H]5CCCN5C(=O)[C@@H](NC(=O)OC)C(C)C)[nH]4)ccc32)[nH]1)C(C)C` (single isomer, unassigned) [Compound 103], the IC50 is 1.71 nM in the experiment with HCV replicon 2B (read-out: 2B IC50, replicon 2B); 5.15 nM with HCV replicon 1AY93H (setting [1]); 0.0056 nM with HCV replicon 1A (Hepatitis C virus, replicon 1A).
`COC(=O)NC(C(=O)N1CCC[C@H]1c1ncc(-c2ccc3c(c2)cc2n3C(c3ccc(C4CC4)s3)Oc3cc(-c4cnc([C@@H]5CCCN5C(=O)[C@@H](NC(=O)OC)C(C)C)[nH]4)cc(F)c3-2)[nH]1)C1CCOC(C)(C)C1` (single isomer, unassigned) [Compound 221]: the IC50 in the experiment with HCV replicon 2B (read-out: 2B IC50, replicon 2B) came to 0.21 nM; in the experiment with HCV replicon 1AY93H (setting [1]), 0.18 nM; in the experiment on HCV replicon 1A (replicon 1A), 0.0022 nM.
As for `COC(=O)N[C@H](C(=O)N1CCC[C@H]1c1ncc(-c2cc(F)c3c(c2)OC(c2ccc(C(CF)CF)s2)n2c-3cc3cc(-c4cnc([C@@H]5CCCN5C(=O)[C@@H](NC(=O)OC)C(C)C)[nH]4)ccc32)[nH]1)C(C)C` (single isomer, unassigned) [Compound 120], the IC50 in the experiment on HCV replicon 2B (read-out: 2B IC50, replicon 2B) was determined as 1.44 nM; in the experiment with HCV replicon 1AY93H (setting [3]), 0.1 nM; in the experiment with HCV replicon 1A (Hepatitis C virus, replicon 1A), 0.0015 nM.

For the origin of these results see patent US20160257697A1, “THIOPHENE-SUBSTITUTED TETRACYCLIC COMPOUNDS AND METHODS OFUSE THEREOF FOR THE TREATMENT OF VIRAL DISEASES” (priority 2013, published 2016).
